Measured values: patent publication US8106055B2, “Substituted amide compounds” (Gruenenthal GmbH, priority 2007, dated 2012)

Experiments:
[1] = molecular target: T1, serotonin (5-HT) reuptake (Rattus norvegicus, UniProt P31652); assay: Inhibition of serotonin (5HT) reuptake in synaptosomes from rat brain; type: biochemical; conditions: test concentration of 10 μM; read-out: 5-HT (inhibition of reuptake of serotonin, % inhibition)
T1 construct: synaptosomes are freshly isolated from areas of the rat brain; from tissue; host or cells: rat brain synaptosomes (P2 fraction)
How it was run: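 Freshly isolated rat brain synaptosomes (P2 fraction) used for 5-HT reuptake. Test compound at 10 μM, activity given as % inhibition.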

[2] = molecular target: T2, human bradykinin 1 receptor (B1R) (Homo sapiens, UniProt P46663); assay: Functional investigation on the human bradykinin 1 receptor (B1R), Ca2+ FLIPR assay in CHO K1 hB1R cells; type: cell-based; conditions: CHO-K1, B1R antagonism human; test substance 10 μM; Ca2+ FLIPR, CHO K1 hB1R cells; read-out: B1R Ant. h [10 μM] % Inhibition
T2 construct: expressed in transfected cells; host or cells: CHO K1 cells
T2 sequence (P46663 1-353): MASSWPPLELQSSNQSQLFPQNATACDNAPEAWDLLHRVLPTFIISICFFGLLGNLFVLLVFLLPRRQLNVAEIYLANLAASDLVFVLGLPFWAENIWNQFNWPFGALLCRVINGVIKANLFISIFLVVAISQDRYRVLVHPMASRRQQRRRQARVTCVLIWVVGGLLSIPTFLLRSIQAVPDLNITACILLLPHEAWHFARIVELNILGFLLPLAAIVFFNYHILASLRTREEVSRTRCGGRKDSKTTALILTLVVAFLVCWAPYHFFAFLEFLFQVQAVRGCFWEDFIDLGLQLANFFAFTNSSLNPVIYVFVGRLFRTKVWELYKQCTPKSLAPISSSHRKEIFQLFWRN
How it was run: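 Stably transfected CHO K1 cells loaded with Fluo-4; FLIPR Ca2+ fluorescence peak (ex 488/em 540 nm). Compound added first (agonism vs Lys-Des-Arg9-bradykinin ≥50 nM human, Des-Arg9-bradykinin 10 μM rat), then after 10-20 min agonist at EC80; antagonism as % inhibition, IC50 from concentration series, n=2-3, N≥2.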

T1 sequence (P31652 whole entry): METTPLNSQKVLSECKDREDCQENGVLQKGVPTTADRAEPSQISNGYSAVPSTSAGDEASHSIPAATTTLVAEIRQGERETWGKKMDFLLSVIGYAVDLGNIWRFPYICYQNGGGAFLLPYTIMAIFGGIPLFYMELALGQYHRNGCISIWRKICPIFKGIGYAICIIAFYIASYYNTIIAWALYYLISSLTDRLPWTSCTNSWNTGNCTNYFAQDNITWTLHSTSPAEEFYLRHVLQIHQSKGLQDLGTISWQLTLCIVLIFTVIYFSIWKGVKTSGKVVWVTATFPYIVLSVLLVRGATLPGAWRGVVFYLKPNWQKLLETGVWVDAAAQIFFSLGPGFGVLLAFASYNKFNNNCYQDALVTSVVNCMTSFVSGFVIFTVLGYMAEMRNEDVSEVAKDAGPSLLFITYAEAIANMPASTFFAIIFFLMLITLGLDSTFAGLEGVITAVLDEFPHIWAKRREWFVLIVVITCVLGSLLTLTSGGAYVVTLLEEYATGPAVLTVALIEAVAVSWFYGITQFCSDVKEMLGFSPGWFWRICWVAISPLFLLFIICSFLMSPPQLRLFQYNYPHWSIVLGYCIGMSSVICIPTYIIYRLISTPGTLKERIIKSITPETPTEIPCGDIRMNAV

| Structure (SMILES) | inhibition at 10 µM [1] | inhibition at 10 µM [2] |
| --- | --- | --- |
| CN(C)C(c1cccc(F)c1)C1CCC(NC(=O)COCCN(C)S(=O)(=O)c2ccc(Cl)cc2)CC1 (stereo not drawn) [Example 196, 2-(2-(4-chloro-N-methylphenylsulfonamido)ethoxy)-N-(4-((dimethylamino)(3-fluorophenyl)methyl)cyclohexyl)acetamide] | 92% | 6% |
| COc1ccc(S(=O)(=O)N2Cc3ccccc3CC2COCC(=O)NCCC2CCC(C(c3cccc(F)c3)N(C)C)CC2)cc1 (stereo not drawn) [Example 190, N-(2-(4-((dimethylamino) (3-fluorophenyl)methyl)cyclohexyl)ethyl)-2-((2-(4-methoxyphenylsulfonyl)-1,2,3,4-tetrahydroisoquinolin-3-yl)methoxy)acetamide] | 79% | 29% |
| COc1cc(C)c(S(=O)(=O)N2CCC(OCC(=O)NCCC3CCC(C(c4cccs4)N(C)C)CC3)CC2)c(C)c1C (stereo not drawn) [Example 177, N-(2-(4-((dimethylamino)(thiophen-2-yl)methyl)cyclohexyl)ethyl)-2-(1-(4-methoxy-2,3,6-trimethylphenylsulfonyl)piperidin-4-yloxy)acetamide] | 93% | 10% |
| COc1cc(C)c(S(=O)(=O)N(C)CCOCC(=O)NCC2CCC(C(c3ccccc3)N(C)C)CC2)c(C)c1 (stereo not drawn) [Example 137, N-((4-((dimethylamino)(phenyl)methyl)cyclohexyl)methyl)-2-(2-(4-methoxy-N,2,6-trimethylphenylsulfonamido)ethoxy)acetamide] | 89% | 102% |
| COc1ccc(S(=O)(=O)N2Cc3ccccc3CC2COCC(=O)NCC2CCC(C(c3ccccc3)N(C)C)CC2)cc1 (stereo not drawn) [Example 19, N-((4-((dimethylamino)(phenyl)methyl)cyclohexyl)methyl)-2-((2-(4-methoxyphenylsulfonyl)-1,2,3,4-tetrahydroisoquinolin-3-yl)methoxy)acetamide] | 92% | 63% |
| COc1ccc(S(=O)(=O)N2Cc3ccccc3CC2COCC(=O)NCC2CCC(C(c3cccc(F)c3)N(C)C)CC2)cc1 (stereo not drawn) [Example 163, N-((4-((dimethylamino)(3-fluorophenyl)methyl)cyclohexyl)methyl)-2-((2-(4-methoxyphenylsulfonyl)-1,2,3,4-tetrahydroisoquinolin-3-yl)methoxy)acetamide] | 96% | 40% |
| Cc1cc(C)c(S(=O)(=O)N2CCC(OCC(=O)NCC3CCC(C(c4cccc(F)c4)N(C)C)CC3)C2)c(C)c1 (stereo not drawn) [Example 141, N-((4-((dimethylamino)(3-fluorophenyl)methyl)cyclohexyl)methyl)-2-(1-(mesitylsulfonyl)pyrrolidin-3-yloxy)acetamide] | 80% | 54% |
| CN(C)C(c1cccs1)C1CCC(NC(=O)COC2CCN(S(=O)(=O)c3ccc(F)cc3)C2)CC1 (stereo not drawn) [Example 28, N-(4-((dimethylamino)(thiophen-2-yl)methyl)cyclohexyl)-2-(1-(4-fluorophenylsulfonyl)pyrrolidin-3-yloxy)acetamide] | 76% | -7% |
| CN(C)C(c1ccccc1)C1CCC(CNC(=O)COCCN(C)S(=O)(=O)c2c(Cl)cc(Cl)cc2Cl)CC1 (stereo not drawn) [Example 14, N-((4-((dimethylamino)(phenyl)methyl)cyclohexyl)methyl)-2-(2-(2,4,6-trichloro-N-methylphenylsulfonamido)ethoxy)acetamide] | 99% | 104% |
| CN(C)C(c1cccc(F)c1)C1CCC(NC(=O)COCCN(Cc2ccccc2)S(=O)(=O)c2ccccc2)CC1 (stereo not drawn) [Example 175, 2-(2-(N-benzylphenylsulfonamido)ethoxy)-N-(4-((dimethylamino)(3-fluorophenyl)methyl)cyclohexyl)acetamide] | 97% | -6% |
| COc1cc(C)c(S(=O)(=O)N(C)CCOCC(=O)NCCC2CCC(C(c3cccc(F)c3)N(C)C)CC2)c(C)c1 (stereo not drawn) [Example 197, N-(2-(4-((dimethylamino)(3-fluorophenyl)methyl)cyclohexyl)ethyl)-2-(2-(4-methoxy-N,2,6-trimethylphenylsulfonamido)ethoxy)acetamide] | 85% | 104% |
| CN(C)C(c1cccs1)C1CCC(NC(=O)COCCN(Cc2ccccc2)S(=O)(=O)c2ccccc2)CC1 (stereo not drawn) [Example 161, 2-(2-(N-benzylphenylsulfonamido)ethoxy)-N-(4-((dimethylamino)(thiophen-2-yl)methyl)cyclohexyl)acetamide] | 94% | 1% |
| CN(C)C(c1cccs1)C1CCC(NC(=O)COC2CCN(S(=O)(=O)c3ccccc3)C2)CC1 (stereo not drawn) [Example 194, N-(4-((dimethylamino)(thiophen-2-yl)methyl)cyclohexyl)-2-(1-(phenylsulfonyl)pyrrolidin-3-yloxy)acetamide] | 86% | -17% |
| COc1ccc(S(=O)(=O)N2CCCC2COCC(=O)NC2CCC(C(c3cccs3)N(C)C)CC2)cc1 (stereo not drawn) [Example 162, N-(4-((dimethylamino)(thiophen-2-yl)methyl)cyclohexyl)-2-((1-(4-methoxyphenylsulfonyl)pyrrolidin-2-yl)methoxy)acetamide] | 81% | -5% |
| CN(C)C(c1cccc(F)c1)C1CCC(CCNC(=O)COCCN(C)S(=O)(=O)c2cccc(C(F)(F)F)c2)CC1 (stereo not drawn) [Example 192, N-(2-(4-((dimethylamino)(3-fluorophenyl)methyl)cyclohexyl)ethyl)-2-(2-(N-methyl-3-(trifluoromethyl)phenylsulfonamido)ethoxy)acetamide] | 94% | 30% |
| COc1cc(C)c(S(=O)(=O)N(CCOCC(=O)NCCC2CCC(C(c3cccs3)N(C)C)CC2)Cc2ccccc2)c(C)c1 (stereo not drawn) [Example 149, 2-(2-(N-benzyl-4-methoxy-2,6-dimethylphenylsulfonamido)ethoxy)-N-(2-(4-((dimethylamino) (thiophen-2-yl)methyl)cyclohexyl)ethyl)acetamide] | 91% | 72% |
| Cc1cc(C)c(S(=O)(=O)N2CCC(OCC(=O)NCC3CCC(C(c4ccccc4)N(C)C)CC3)C2)c(C)c1 (stereo not drawn) [Example 26, N-((4-((dimethylamino)(phenyl)methyl)cyclohexyl)methyl)-2-(1-(mesitylsulfonyl)pyrrolidin-3-yloxy)acetamide] | 83% | 51% |
| COc1ccc(S(=O)(=O)N2CCCC2COCC(=O)NC2CCC(C(c3ccccc3)N(C)C)CC2)cc1 (stereo not drawn) [Example 182, N-(4-((dimethylamino)(phenyl)methyl)cyclohexyl)-2-((1-(4-methoxyphenylsulfonyl)pyrrolidin-2-yl)methoxy)acetamide] | 85% | 9% |
| COc1ccc(S(=O)(=O)N2CCCCC2COCC(=O)NCC2CCC(C(c3cccc(F)c3)N(C)C)CC2)cc1 (stereo not drawn) [Example 179, N-((4-((dimethylamino)(3-fluorophenyl)methyl)cyclohexyl)methyl)-2-((1-(4-methoxyphenylsulfonyl)piperidin-2-yl)methoxy)acetamide] | 92% | 65% |
| CN(C)C(c1cccc(F)c1)C1CCC(CNC(=O)COC2CCCCC2N(C)S(=O)(=O)c2ccc(Cl)c(Cl)c2)CC1 (stereo not drawn) [Example 164, 2-(2-(3,4-dichloro-N-methylphenylsulfonamido)cyclohexyloxy)-N-((4-((dimethylamino)(3-fluorophenyl)methyl)cyclohexyl)methyl)acetamide] | 90% | 14% |
| Cc1cc(C)c(S(=O)(=O)N2CCC(OCC(=O)NC3CCC(C(c4cccs4)N(C)C)CC3)C2)c(C)c1 (stereo not drawn) [Example 12, N-(4-((dimethylamino)(thiophen-2-yl)methyl)cyclohexyl)-2-(1-(mesitylsulfonyl)pyrrolidin-3-yloxy)acetamide] | 79% | 41% |
| CN(C)C(c1cccc(F)c1)C1CCC(CNC(=O)COCCN(C)S(=O)(=O)c2c(Cl)cc(Cl)cc2Cl)CC1 (stereo not drawn) [Example 188, N-((4-((dimethylamino)(3-fluorophenyl)methyl)cyclohexyl)methyl)-2-(2-(2,4,6-trichloro-N-methylphenylsulfonamido)ethoxy)acetamide] | 98% | 102% |
| COc1cc(C)c(S(=O)(=O)N(CCOCC(=O)NCC2CCC(C(c3ccccc3)N(C)C)CC2)Cc2ccccc2)c(C)c1 (stereo not drawn) [Example 148, 2-(2-(N-benzyl-4-methoxy-2,6-dimethylphenylsulfonamido)ethoxy)-N-((4-((dimethylamino)(phenyl)methyl)cyclohexyl)methyl)acetamide] | 95% | 92% |
| CN(C)C(c1ccccc1)C1CCC(CNC(=O)COCC2CCCCN2S(=O)(=O)c2ccc(Cl)c(Cl)c2)CC1 (stereo not drawn) [Example 17, 2-((1-(3,4-dichlorophenylsulfonyl)piperidin-2-yl)methoxy)-N-((4-((dimethylamino)(phenyl)methyl)cyclohexyl)methyl)acetamide] | 93% | 81% |
